The record followed here is patent US6582734B1, “Antimicrobial composition useful for the treatment of bovine mastitis” (Ecolab Inc., priority 2000, dated 2003).

Test [1] relates to Escherichia coli (ATCC 11229). Briefly: Antimicrobial effect of ClO2 compositions with/without heptanoic acid, E. coli. To be noted: no secondary antimicrobial fatty acid added. In kind it is cell-based. The method, then: (§1) This experiment was used to determine what affect the addition of a fatty acid, the secondary antimicrobial agent, had on the effectiveness of the compositions in killing E. Coli and S. Aureus. The secondary fatty acid used was heptanoic acid at a level of 1% in examples 1, 2 and 3. The comparative examples, A, B and C, contained no fatty acid.
(§2) Three compositions were prepared from each base solution. Sodium chlorite was added in amounts that were sufficient to form compositions having 200 ppm, 300 ppm and 400 ppm ClO2. Six compositions were prepared in all.
(§3) The compositions were then tested for the antimicrobial effect against Staphylococcus aureus and Escherichia coli. The inoculum numbers in CFU/mL were 1.1×10^7 (ATCC 6538) and 1.0×10^8 (ATCC 11229). The test temperature was 25° C. and the solution pH was 5.5. The following Table II illustrates the results obtained.

In test [2] the test system is Staphylococcus aureus (ATCC 6538). Briefly: Antimicrobial effect of ClO2 compositions with/without heptanoic acid, S. aureus. In kind it is cell-based. Conditions: no secondary antimicrobial fatty acid added. The protocol:
as §1, §2, §3

The subject of a further test is S. aureus. Briefly: Effect of various acids on antimicrobial activity of the base solution (no chlorine dioxide), S. aureus. Conditions: used alone at 1%. Format: cell-based, Staphylococcus aureus. The method, then:
(§4) The effect of various acids on the antimicrobial activity of the base solution was measured. No chlorine dioxide was added to the compositions. Acids were added to each sample at a concentration of 1%. Example 4 had 1% heptanoic acid and Comparative Example D had 1% lactic acid. Examples 5 and 6 utilized blends of acids. The antimicrobial activity of each was measured and compared in the following Table III.

A further test concerns E. coli. Briefly: Effect of various acids on antimicrobial activity of the base solution (no chlorine dioxide), E. coli. In kind it is cell-based, Escherichia coli. Conditions: used alone at 1%. The protocol:
as §4

Turning to `[O][Cl+][O-]` [chlorine dioxide], the “concentration level of chlorine dioxide that provided an effective antimicrobial kill of E. Coli” value in test [1] worked out at 300 ppm. Further, in test [2], the “concentration level of chlorine dioxide that provided an effective antimicrobial kill of S. Aureus” value was determined as 300 ppm.

Turning to `CC(O)C(=O)O` (stereo not shown) [lactic acid], the “effect against the microbes (S. aureus), in words” value in the test with S. aureus is recorded as “does not have much of any effect”. Further, the “effect against the microbes (E. coli), in words” value in the test with E. coli is given as “does not have much of any effect”.
